Data as given in the supplement of paper PMC13207355.
Counter-ions that a name gives are not always drawn.

Tests used:
Details in all cases: exposure time: 72 h
[1] = test system: E13 (patient-derived glioblastoma stem cells of classical subtype); assay: surviving fraction (nuclei count normalised to DMSO); higher = more cells surviving (less toxic)
[2] = test system: E21 (patient-derived glioblastoma stem cells of mesenchymal subtype); assay: as above
[3] = test system: E28 (patient-derived glioblastoma stem cells of classical subtype); assay: as above
[4] = test system: E31 (patient-derived glioblastoma stem cells of proneural subtype); assay: as above
[5] = test system: E34 (patient-derived glioblastoma stem cells of proneural subtype); assay: as above
[6] = test system: E57 (patient-derived glioblastoma stem cells of mesenchymal subtype); assay: as above
[7] = test system: FT3469 (normal neural stem cell line); assay: as above
[8] = test system: E13; assay: phenotypic distance (Euclidean, principal components) from DMSO controls (arbitrary units); higher = stronger morphological change
[9] = test system: E21; assay: as above
[10] = test system: E28; assay: as above
[11] = test system: E31; assay: as above
[12] = test system: E34; assay: as above
[13] = test system: E57; assay: as above
[14] = test system: FT3469; assay: as above
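Wherever phenotypic distance (Euclidean, principal components) from DMSO controls is given: cell Painting imaging in 384-well plates, CellProfiler features reduced to at least 20 principal components, Euclidean distance versus same-plate DMSO vehicle wells (0.1% v/v), median over six images per well.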
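Wherever surviving fraction (nuclei count normalised to DMSO) is given: nuclei counted by high-content imaging of Hoechst-stained cells in laminin-coated 384-well plates, relative to 0.1% DMSO vehicle wells, with staurosporine as cell-death control.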

COc1ccc([C@@H]2CC(=O)c3c(O)cc(O[C@@H]4O[C@H](CO[C@@H]5O[C@@H](C)[C@H](O)[C@@H](O)[C@H]5O)[C@@H](O)[C@H](O)[C@H]4O)cc3O2)cc1O [Hesperidin]
Details	phenotypic distance	surviving fraction
[1], 4.1 nM	–	0.863
[1], 12.3 nM	–	0.95
[1], 37 nM	–	0.946
[1], 111.1 nM	–	0.963
[1], 333.3 nM	–	0.941
[1], 1000 nM	–	1.04
[1], 3000 nM	–	0.96
[2], 4.1 nM	–	0.916
[2], 12.3 nM	–	0.952
[2], 37 nM	–	0.918
[2], 111.1 nM	–	1.01
[2], 333.3 nM	–	0.971
[2], 1000 nM	–	1.02
[2], 3000 nM	–	0.969
[3], 4.1 nM	–	1.02
[3], 12.3 nM	–	1.13
[3], 37 nM	–	1.02
[3], 111.1 nM	–	0.97
[3], 333.3 nM	–	1.02
[3], 1000 nM	–	1.13
[3], 3000 nM	–	0.967
[4], 4.1 nM	–	0.929
[4], 12.3 nM	–	1.11
[4], 37 nM	–	1.1
[4], 111.1 nM	–	0.966
[4], 333.3 nM	–	1.09
[4], 1000 nM	–	1.04
[4], 3000 nM	–	0.936
[5], 4.1 nM	–	1.02
[5], 12.3 nM	–	0.86
[5], 37 nM	–	0.979
[5], 111.1 nM	–	1.21
[5], 333.3 nM	–	1.01
[5], 1000 nM	–	0.93
[5], 3000 nM	–	1.06
[6], 4.1 nM	–	1
[6], 12.3 nM	–	1.12
[6], 37 nM	–	0.932
[6], 111.1 nM	–	0.961
[6], 333.3 nM	–	0.943
[6], 1000 nM	–	0.925
[6], 3000 nM	–	0.915
[7], 4.1 nM	–	1.13
[7], 12.3 nM	–	1.1
[7], 37 nM	–	1.05
[7], 111.1 nM	–	1.15
[7], 333.3 nM	–	0.937
[7], 1000 nM	–	1.01
[7], 3000 nM	–	0.981
[8], 4.1 nM	0.619	–
[8], 12.3 nM	0.532	–
[8], 37 nM	0.507	–
[8], 111.1 nM	0.462	–
[8], 333.3 nM	0.682	–
[8], 1000 nM	0.572	–
[8], 3000 nM	0.438	–
[9], 4.1 nM	0.723	–
[9], 12.3 nM	1.01	–
[9], 37 nM	0.467	–
[9], 111.1 nM	0.825	–
[9], 333.3 nM	0.905	–
[9], 1000 nM	0.753	–
[9], 3000 nM	1.01	–
[10], 4.1 nM	0.47	–
[10], 12.3 nM	0.575	–
[10], 37 nM	0.783	–
[10], 111.1 nM	0.619	–
[10], 333.3 nM	0.437	–
[10], 1000 nM	0.666	–
[10], 3000 nM	1.36	–
[11], 4.1 nM	0.45	–
[11], 12.3 nM	0.684	–
[11], 37 nM	0.77	–
[11], 111.1 nM	0.32	–
[11], 333.3 nM	0.513	–
[11], 1000 nM	0.709	–
[11], 3000 nM	0.756	–
[12], 4.1 nM	0.666	–
[12], 12.3 nM	0.79	–
[12], 37 nM	0.595	–
[12], 111.1 nM	1.02	–
[12], 333.3 nM	0.595	–
[12], 1000 nM	0.635	–
[12], 3000 nM	0.793	–
[13], 4.1 nM	0.43	–
[13], 12.3 nM	0.735	–
[13], 37 nM	0.539	–
[13], 111.1 nM	0.532	–
[13], 333.3 nM	0.511	–
[13], 1000 nM	0.762	–
[13], 3000 nM	0.602	–
[14], 4.1 nM	0.821	–
[14], 12.3 nM	1.41	–
[14], 37 nM	0.766	–
[14], 111.1 nM	1.05	–
[14], 333.3 nM	0.567	–
[14], 1000 nM	0.989	–
[14], 3000 nM	0.744	–

Clc1ccc(C(Cn2ccnc2)OCc2ccsc2Cl)c(Cl)c1 (centres undefined) [Tioconazole]
Details	phenotypic distance	surviving fraction
[1], 4.1 nM	–	0.996
[1], 12.3 nM	–	0.959
[1], 37 nM	–	1.02
[1], 111.1 nM	–	0.98
[1], 333.3 nM	–	0.992
[1], 1000 nM	–	1.01
[1], 3000 nM	–	0.857
[2], 4.1 nM	–	1.05
[2], 12.3 nM	–	1.01
[2], 37 nM	–	0.998
[2], 111.1 nM	–	1.03
[2], 333.3 nM	–	1
[2], 1000 nM	–	0.876
[2], 3000 nM	–	0.887
[3], 4.1 nM	–	1.06
[3], 12.3 nM	–	1.11
[3], 37 nM	–	1.05
[3], 111.1 nM	–	1.13
[3], 333.3 nM	–	1.03
[3], 1000 nM	–	1.02
[3], 3000 nM	–	0.843
[4], 4.1 nM	–	0.857
[4], 12.3 nM	–	0.993
[4], 37 nM	–	1.08
[4], 111.1 nM	–	1.11
[4], 333.3 nM	–	0.972
[4], 1000 nM	–	1.02
[4], 3000 nM	–	0.969
[5], 4.1 nM	–	1.14
[5], 12.3 nM	–	0.871
[5], 37 nM	–	0.929
[5], 111.1 nM	–	0.959
[5], 333.3 nM	–	0.947
[5], 1000 nM	–	0.894
[5], 3000 nM	–	0.776
[6], 4.1 nM	–	0.962
[6], 12.3 nM	–	0.998
[6], 37 nM	–	0.997
[6], 111.1 nM	–	1.04
[6], 333.3 nM	–	0.973
[6], 1000 nM	–	0.922
[6], 3000 nM	–	0.988
[7], 4.1 nM	–	0.871
[7], 12.3 nM	–	1.12
[7], 37 nM	–	0.948
[7], 111.1 nM	–	1.08
[7], 333.3 nM	–	1.01
[7], 1000 nM	–	0.829
[7], 3000 nM	–	0.787
[8], 4.1 nM	0.434	–
[8], 12.3 nM	0.591	–
[8], 37 nM	0.952	–
[8], 111.1 nM	0.719	–
[8], 333.3 nM	0.807	–
[8], 1000 nM	0.71	–
[8], 3000 nM	0.892	–
[9], 4.1 nM	0.639	–
[9], 12.3 nM	0.48	–
[9], 37 nM	0.312	–
[9], 111.1 nM	0.6	–
[9], 333.3 nM	0.27	–
[9], 1000 nM	0.663	–
[9], 3000 nM	1.33	–
[10], 4.1 nM	0.718	–
[10], 12.3 nM	0.644	–
[10], 37 nM	0.417	–
[10], 111.1 nM	0.495	–
[10], 333.3 nM	0.688	–
[10], 1000 nM	0.954	–
[10], 3000 nM	0.695	–
[11], 4.1 nM	0.731	–
[11], 12.3 nM	0.483	–
[11], 37 nM	0.639	–
[11], 111.1 nM	0.611	–
[11], 333.3 nM	0.715	–
[11], 1000 nM	0.918	–
[11], 3000 nM	1.46	–
[12], 4.1 nM	0.558	–
[12], 12.3 nM	0.535	–
[12], 37 nM	0.702	–
[12], 111.1 nM	0.614	–
[12], 333.3 nM	0.634	–
[12], 1000 nM	0.943	–
[12], 3000 nM	1.08	–
[13], 4.1 nM	0.709	–
[13], 12.3 nM	0.457	–
[13], 37 nM	0.46	–
[13], 111.1 nM	0.302	–
[13], 333.3 nM	0.722	–
[13], 1000 nM	0.606	–
[13], 3000 nM	1.69	–
[14], 4.1 nM	1.14	–
[14], 12.3 nM	1.57	–
[14], 37 nM	0.375	–
[14], 111.1 nM	0.556	–
[14], 333.3 nM	0.563	–
[14], 1000 nM	0.69	–
[14], 3000 nM	1.37	–

CNCCc1ccccn1 [Betahistine mesylate]
Details	phenotypic distance	surviving fraction
[1], 4.1 nM	–	0.978
[1], 12.3 nM	–	0.933
[1], 37 nM	–	1.01
[1], 111.1 nM	–	1.13
[1], 333.3 nM	–	0.991
[1], 1000 nM	–	1.05
[1], 3000 nM	–	1.08
[2], 4.1 nM	–	1.01
[2], 12.3 nM	–	1.06
[2], 37 nM	–	0.973
[2], 111.1 nM	–	0.957
[2], 333.3 nM	–	1.08
[2], 1000 nM	–	1.01
[2], 3000 nM	–	1.17
[3], 4.1 nM	–	0.99
[3], 12.3 nM	–	1.1
[3], 37 nM	–	1.08
[3], 111.1 nM	–	0.858
[3], 333.3 nM	–	1.04
[3], 1000 nM	–	1.1
[3], 3000 nM	–	1.2
[4], 4.1 nM	–	0.967
[4], 12.3 nM	–	1.11
[4], 37 nM	–	0.864
[4], 111.1 nM	–	1.01
[4], 333.3 nM	–	0.976
[4], 1000 nM	–	1.09
[4], 3000 nM	–	1.1
[5], 4.1 nM	–	0.797
[5], 12.3 nM	–	0.969
[5], 37 nM	–	0.928
[5], 111.1 nM	–	1.16
[5], 333.3 nM	–	1.11
[5], 1000 nM	–	1.1
[5], 3000 nM	–	0.927
[6], 4.1 nM	–	0.99
[6], 12.3 nM	–	0.95
[6], 37 nM	–	0.987
[6], 111.1 nM	–	1.04
[6], 333.3 nM	–	1.01
[6], 1000 nM	–	0.983
[6], 3000 nM	–	0.999
[7], 4.1 nM	–	0.941
[7], 12.3 nM	–	1.08
[7], 37 nM	–	1.16
[7], 111.1 nM	–	0.935
[7], 333.3 nM	–	1.23
[7], 1000 nM	–	1.18
[7], 3000 nM	–	1.19
[8], 4.1 nM	0.901	–
[8], 12.3 nM	0.868	–
[8], 37 nM	1.14	–
[8], 111.1 nM	0.834	–
[8], 333.3 nM	0.663	–
[8], 1000 nM	0.868	–
[8], 3000 nM	0.634	–
[9], 4.1 nM	1.28	–
[9], 12.3 nM	1.7	–
[9], 37 nM	0.97	–
[9], 111.1 nM	1.14	–
[9], 333.3 nM	1.32	–
[9], 1000 nM	1.57	–
[9], 3000 nM	1.61	–
[10], 4.1 nM	0.708	–
[10], 12.3 nM	1.01	–
[10], 37 nM	0.524	–
[10], 111.1 nM	0.891	–
[10], 333.3 nM	0.512	–
[10], 1000 nM	0.607	–
[10], 3000 nM	0.451	–
[11], 4.1 nM	0.624	–
[11], 12.3 nM	0.892	–
[11], 37 nM	0.655	–
[11], 111.1 nM	0.749	–
[11], 333.3 nM	0.468	–
[11], 1000 nM	0.554	–
[11], 3000 nM	1.08	–
[12], 4.1 nM	0.696	–
[12], 12.3 nM	0.75	–
[12], 37 nM	0.843	–
[12], 111.1 nM	1.03	–
[12], 333.3 nM	0.558	–
[12], 1000 nM	0.851	–
[12], 3000 nM	1.25	–
[13], 4.1 nM	4.51	–
[13], 12.3 nM	1.49	–
[13], 37 nM	1.15	–
[13], 111.1 nM	1.23	–
[13], 333.3 nM	0.721	–
[13], 1000 nM	0.773	–
[13], 3000 nM	0.773	–
[14], 4.1 nM	0.827	–
[14], 12.3 nM	0.751	–
[14], 37 nM	0.948	–
[14], 111.1 nM	0.634	–
[14], 333.3 nM	1.15	–
[14], 1000 nM	0.929	–
[14], 3000 nM	0.86	–
